# In patent US8431602B2, “Beta-amino acid derivatives for treatment of diabetes” (Merck Patent Gesellschaft mit beschrankter Haftung, priority 2008, dated 2013):
# Target: T1, glucokinase (GK), human enzyme (Homo sapiens, UniProt P35557)
# T1 sequence (P35557 1-465): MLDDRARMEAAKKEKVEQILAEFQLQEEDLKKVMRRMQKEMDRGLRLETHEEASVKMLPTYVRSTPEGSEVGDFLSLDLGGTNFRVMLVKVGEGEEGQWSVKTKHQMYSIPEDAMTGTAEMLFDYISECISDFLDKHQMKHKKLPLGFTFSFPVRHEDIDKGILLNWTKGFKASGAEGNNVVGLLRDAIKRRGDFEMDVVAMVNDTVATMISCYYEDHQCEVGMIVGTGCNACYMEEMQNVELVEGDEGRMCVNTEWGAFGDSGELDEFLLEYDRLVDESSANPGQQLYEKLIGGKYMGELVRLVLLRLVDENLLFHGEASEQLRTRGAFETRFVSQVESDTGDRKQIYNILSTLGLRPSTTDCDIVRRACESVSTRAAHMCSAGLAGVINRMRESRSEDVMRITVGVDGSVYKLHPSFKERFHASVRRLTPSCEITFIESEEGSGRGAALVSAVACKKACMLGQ
# Test: Glucokinase Activation Assay (coupled enzyme assay with PK/LDH, NADH decline at 340 nm)
# Type: biochemical
# Settings: 2 mM glucose, half maximal effective concentration of activation
# Method: Glucokinase Activation Screening Assay
# GK activity (human or rat enzyme) is measured by a coupled enzyme assay using pyruvate kinase (PK) and lactate dehydrogenase (LDH) as coupling enzymes. GK activity is calculated from the decline in NADH monitored photometrically with a microtiter plate (MTP) reader at 340 nm.
# For screening purposes, the GK assay is routinely run in a 384-MTP format, in a total volume of 33 μl/well. 10 μl of the ATP-regeneration solution (in HEPES-buffer*, pH 7.0, 6.73 U/ml pyruvate kinase, 6.8 U/ml lactate dehydrogenase) and 10 μl of the glucokinase-/glucose solution (15 μg/ml, 6.6 mM glucose in HEPES-buffer*, pH 7.0; the concentration of the glucose stock-solution was 660 mM in Millipore H2O) were mixed together with 3 μl of a 10% DMSO solution (in HEPES-buffer*, pH 7.0) containing […] the amounts of the compounds to achieve final compound concentrations in the range between 1 nM to 30 μM (sometimes 300 μM) in the assay solution (s. below). The solutions were mixed for 5 sec, and after a centrifugation at 243×g for 5 min, the solutions were preincubated for 25 min at room temperature. The reaction was started by the addition of 10 μl of the NADH-/ATP-solution (4.29 mM NADH, 4.95 mM ATP, in HEPES-buffer*). The MTP was shaken for 5 sec., and then, the absorbance at 340 nm was monitored continuously in a MTP-reader (TECAN Spectro fluor plus) for the next 27 min (with a MTP-cycling time of 199 sec.). The final concentrations of the various components were as follows: 49.5 mM Hepes, pH 7.0, 1.49 mM PEP, 1.3 mM NADH, 49.5 mM KCl, 4.96 mM MgCl2, 1.5 mM Mg-ATP, 1.98 mM DTT, 2.04 U/ml pyruvate kinase, 2.06 U/ml lactate-dehydrogenase, 0.91% DMSO, 0.15 μg/well glucokinase, and test compounds in the range between 1 nM and 300 μM, The change in the optical density (ΔOD340 nm) in the presence of the compound was expressed relative to the ΔOD340 nm, ctrl of the control incubation (in the presence of 2 mM glucose and 0.91% DMSO), taking into account the optical density of the blank sample (incubation in the absence of 2 mM glucose). For the determination of the half maximal effective concentration (EC50), the %-Ctrl-values were plotted in a semi-logarithmic graph against the cone. of the compound of interest. The data points were fitted to a sigmoid curve function (f(x)=((%-Ctrlmax−%-Ctrlmin)/(1−(EC50/x**^n(Hill)))+%-Ctrlmin)) by a non-linear regression analysis. • Hepes-buffer (50 mM Hepes, pH 7.0, 5 mM MgCl2, 50 mM KCl, 1.5 mM PEP, 0.1% BSA). DTT was added to the Hepes-buffer from a 200× stock solution (in Millipore H2O) freshly each day. The final concentration of DTT in the Hepes-buffer is 2 mM. Culture of Pancreatic INS-1 Cells
row,SMILES,EC50
1,"COc1cc(C(CC(=O)Nc2ccc(Cl)cn2)N2Cc3ccccc3C2=O)cc(OC)c1OC (stereo not drawn) [B2, N-(5-Chloro-pyridine-2-yl)-3-(1-oxo-1,3-dihydro-isoindole-2-yl)-3-(3,4,5-trimethoxy-phenyl)-propionamide]",1 to 10 µM
2,"COc1cc(C(CC(=O)Nc2ccc(C)cn2)N2Cc3ccccc3C2=O)cc(OC)c1OC (stereo not drawn) [B7, N-(5-Methyl-pyridine-2-yl)-3-(1-oxo-1,3-dihydro-isoindole-2-yl)-3-(3,4,5-trimethoxy-phenyl)-propionamide]",1 to 10 µM
3,"COc1cccc(C(CC(=O)Nc2ccc(Cl)cn2)N2Cc3ccccc3C2=O)c1OC (stereo not drawn) [C3, N-(5-Chloro-pyridine-5-yl)-3-(2,3-dimethoxy-phenyl)-3-(1-oxo-1,3-dihydro-isoindole-2-yl)-propionamide]",> 10 µM
4,"CCOc1ccc(C(CC(=O)Nc2ccc(Cl)cn2)N2Cc3ccccc3C2=O)cc1OC (single isomer, unassigned; (+)) [C4, (+)-N-(5-Chloro-pyridine-2-yl)-3-(4-ethoxy-3-methoxy-phenyl)-3-(1-oxo-1,3-dihydro-isoindole-2-yl)-propionamide]",> 10 µM
5,"COc1ccc(C(CC(=O)Nc2ccc(Br)cn2)N2Cc3ccccc3C2=O)cc1OC (stereo not drawn) [B5, N-(5-Bromo-pyridine-2-yl)-3-(3,4-dimethoxy-phenyl)-3-(1-oxo-1,3-dihydro-isoindole-2-yl)-propionamide]",> 10 µM
6,"CCOc1ccc(C(CC(=O)Nc2ccc(Cl)cn2)N2Cc3ccccc3C2=O)cc1OC (stereo not drawn) [C23, N-(5-Chloro-pyridine-2-yl)-3-(4-ethoxy-3-methoxy-phenyl)-3-(1-oxo-1,3-dihydro-isoindole-2-yl)-propionamide]",> 10 µM
7,"COc1ccc(C(CC(=O)Nc2ccc(Cl)cn2)N2Cc3ccccc3C2=O)cc1OC (stereo not drawn) [B6, N-(5-Chloro-pyridine-2-yl)-3-(3,4-dimethoxy-phenyl)-3-(1-oxo-1,3-dihydro-isoindole-2-yl)-propionamide]",> 10 µM
8,"COc1cc(C(CC(=O)Nc2ccc(Cl)cn2)N2Cc3ccccc3C2=O)cc(OC)c1OC (single isomer, unassigned; (+)) [C1, (+)-N-(5-Chloro-pyridine-2-yl)-3-(1-oxo-1,3-dihydro-isoindole-2-yl)-3-(3,4,5-trimethoxy-phenyl)-propionamide]",1 to 10 µM
9,"CCOc1ccc(C(CC(=O)Nc2ccc(Cl)cn2)N2Cc3ccccc3C2=O)cc1OC (single isomer, unassigned; (-)) [C5, (−)-N-(5-Chloro-pyridine-2-yl)-3-(4-ethoxy-3-methoxy-phenyl)-3-(1-oxo-1,3-dihydro-isoindole-2-yl)-propionamide]",> 10 µM
